According to US9315503B2, “Kinase inhibitors” (CHIESI FARMACEUTICI S.p.A., priority 2011, dated 2016):

Tests used:
p38alpha = molecular target: T1, p38alpha (Homo sapiens, UniProt Q16539); test: P38Alpha enzyme inhibition assay (Alphascreen kinase activity assay); assay type: biochemical; conditions: 100 pM p38alpha, 250 μM ATP, 2 hours pre-incubation at 25° C., read-out: p38α inhibition (IC50 values)
T1 construct: purchased Invitrogen PV3304
How it was run: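 AlphaScreen read-out: after an EDTA stop, an anti-phospho-ATF2 antibody with Protein A acceptor and donor beads measured substrate phosphorylation. Compounds sat 2 h at 25°C with 100 pM p38α and 0.3 µg/ml ATF-2 fusion protein (pH 7.5, 1% DMSO) before 250 µM ATP was added for 1 h. IC50 from dose-response.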

[1] = test system: LPS-stimulated TNFα release from PBMCs; test: LPS-stimulated PBMC TNFα release assay; assay type: cell-based; conditions: inhibition of TNFα release, human PBMCs, LPS 10 ng/ml, 18 h, ELISA, read-out: p38α inhibition (IC50 values)
How it was run: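 TNFα in supernatants measured by ELISA after 18 h LPS (10 ng/ml) challenge of human PBMCs given 1 h compound pretreatment at 37 °C in medium with 1% FBS. Percent inhibition versus control release fitted to dose-response curves for IC50; at least three independent runs.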

[2] = test system: BAL cell influx induced by TS; test: Pre-clinical mouse model of COPD: tobacco smoke induced pulmonary inflammation; assay type: in vivo; conditions: mice, 3, 30 or 100 μg/kg, intranasal route, 4 daily TS exposures, BAL 24 h after final exposure (FIG. 1)
Excerpt: Pre-Clinical Mouse Model of COPD Tobacco Smoke Induced Pulmonary Inflammation.
This timepoint was used in the studies reported here.
Protocols for the exposure of mice to TS, obtaining bronchoalveolar lavage fluid (BALF) and preparation of cytospin slides for differential cell counts are as outlined below.
Daily Exposure of Mice to TS for 4 Consecutive Days.
In this exposure protocol, mice were exposed in groups of 5 in individual clear polycarbonate chambers (27 cm×16 cm×12 cm). The TS from the cigarettes was allowed to enter the exposure chambers at a flow rate of 100 ml/min. In order to minimise any potential problems caused by repeated exposure to a high level of TS, the exposure of the mice to TS was increased gradually over the exposure period to a maximum of 6 cigarettes. […]
Lavage fluid was separated from cells by centrifugation and the supernatant decanted and frozen for subsequent analyses. The cell pellet was re-suspended in a known volume of PBS and total cell numbers calculated by counting a stained (Turks stain) aliquot under a microscope using a haemocytometer. […]
The residual cell pellet was diluted to approximately 10^5 cells per ml. […] Approximately four hundred cells were counted by an unbiased operator using light microscopy. […]
All results are presented as individual data points for each animal and the mean value was calculated for each group. […]

T1 sequence (Q16539 whole entry): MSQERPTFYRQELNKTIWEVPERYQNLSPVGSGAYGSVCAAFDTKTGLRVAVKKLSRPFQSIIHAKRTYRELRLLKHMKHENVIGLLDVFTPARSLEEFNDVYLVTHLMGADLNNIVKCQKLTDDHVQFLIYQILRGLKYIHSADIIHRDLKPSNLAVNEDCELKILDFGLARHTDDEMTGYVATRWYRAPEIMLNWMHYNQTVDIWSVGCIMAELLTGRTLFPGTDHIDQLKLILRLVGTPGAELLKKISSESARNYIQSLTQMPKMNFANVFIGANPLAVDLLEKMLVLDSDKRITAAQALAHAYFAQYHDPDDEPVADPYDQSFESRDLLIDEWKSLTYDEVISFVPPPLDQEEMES

IC50 (p38alpha): < 10 nM
SMILES: Cc1ccc(-n2nc(C(C)(C)C)cc2NC(=O)N[C@H]2CC[C@@H](Oc3ccc4nnc([C@@H]5CCCN5C)n4c3)c3ccccc32)cc1 [Example 5, 1-(5-tert-Butyl-2-p-tolyl-2H-pyrazol-3-yl)-3-[(1S,4R)-4-[3-((S)-1-methyl-pyrrolidin-2-yl)-[1,2,4]triazolo[4,3-a]pyridin-6-yloxy)-1,2,3,4-tetrahydro-naphthalen-1-yl]-urea]
IC50 [1]: < 10 nM
BAL cell influx induced by TS [2]: significantly inhibited
